This passage reports IC50 results from US20260042764A1, “COMPOSITIONS AND METHODS FOR INHIBITION OF KRAS” (TheRas, Inc., priority 2022, published 2026).

As a reminder, the IC50 is the concentration that gives 50% inhibition.

Assay [1] deals with T1, Avi-KRAS G12R (1-169) GppNHp/RAF1 RBD-3xFLAG (52-151) (Homo sapiens, UniProt P01116, G12R).
T1 construct: Avi-KRAS G12R (1-169)
The assay is described as follows: Raf1-KRAS G12R-GppNHP disruption HTRF assay (Biological Example 1). The assay is classed as binding. To be noted: KRAS G12R, GppNHp-loaded; class symbols. In short, it runs like this: (§1)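 First, protein mix in Tris pH 7.5 buffer with NaCl, MgCl2, BSA, Tween and 10% DMSO is incubated 1 h at room temperature. Next, reagent mix is added and incubated a further 1 h at room temperature. Finally, HTRF is read and activity normalized to DMSO.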
Background: In TR-FRET formats the signal depends on donor and acceptor labels being close together.

For a further assay, the system named is GP2d cells (KRAS G12D). The assay is described as follows: Cell-based pERK HTRF assay in GP2d cell (Biological Example 2). To be noted: GP2d (KRAS G12D) cells, pERK HTRF, class symbols. In short, it runs like this: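 60 min compound, 0.25% DMSO, 9-pt half-log curve from 1 μM or 100 nM; DMEM/10% FBS.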
In assay [2] the target is T2, Avi-KRAS WT (1-169) GppNHp/RAF1 RBD-3xFLAG (52-151) (Homo sapiens, UniProt P01116).
T2 construct: Avi-KRAS WT (1-169)
The assay is described as follows: Raf1-KRAS WT-GppNHP disruption HTRF assay (Biological Example 1). The assay is classed as binding. To be noted: KRAS WT, GppNHp-loaded; class symbols. The procedure, abridged:
as §1

The test system of a further assay is SW620 cells (KRAS G12V). The assay is described as follows: Cell-based pERK HTRF assay in SW620 cell (Biological Example 4). To be noted: pERK HTRF, class symbols. In short, it runs like this:
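SW620 cells were treated for 4 h with compound in a 9-point half-log series from 1 μM top (0.25% DMSO), then lysed. Phospho-ERK was detected by HTRF with d2 and Eu cryptate antibodies after 4–24 h at room temperature, read at 615 nm emission.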

The target in assay [3] is T3, Avi-KRAS G12D (1-169) GppNHp/RAF1 RBD-3xFLAG (52-151) (Homo sapiens, UniProt P01116, G12D).
T3 construct: Avi-KRAS G12D (1-169)
As to the kind of experiment: Raf1-KRAS G12D-GppNHP disruption HTRF assay (Biological Example 1). The assay is classed as binding. To be noted: KRAS G12D, GppNHp-loaded; class symbols. The procedure, abridged: as §1

In assay [4] the target is T4, Avi-KRAS G12V (1-169) GppNHp/RAF1 RBD-3xFLAG (52-151) (Homo sapiens, UniProt P01116, G12V).
T4 construct: Avi-KRAS G12V (1-169)
The assay is described as follows: Raf1-KRAS G12V-GppNHP disruption HTRF assay (Biological Example 1). The assay is classed as binding. To be noted: KRAS G12V, GppNHp-loaded; class symbols. The procedure, abridged: as §1

Setting [5] is: Homo sapiens, SW-620, SW620 (KRAS G12V) cells.

T3 sequence (P01116 1-169 isoform P01116-2 G12D): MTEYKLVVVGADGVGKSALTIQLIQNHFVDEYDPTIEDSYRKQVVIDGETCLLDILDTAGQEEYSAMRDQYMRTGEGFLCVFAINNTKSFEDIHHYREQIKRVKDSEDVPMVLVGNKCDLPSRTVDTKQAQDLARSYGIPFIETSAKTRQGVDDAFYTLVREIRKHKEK
T4 sequence (P01116 1-169 isoform P01116-2 G12V): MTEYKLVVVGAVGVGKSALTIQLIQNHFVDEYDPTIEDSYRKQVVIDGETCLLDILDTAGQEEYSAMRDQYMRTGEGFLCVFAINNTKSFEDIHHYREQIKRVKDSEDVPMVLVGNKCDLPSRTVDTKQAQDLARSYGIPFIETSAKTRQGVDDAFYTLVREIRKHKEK
T2 sequence (P01116 1-169 isoform P01116-2): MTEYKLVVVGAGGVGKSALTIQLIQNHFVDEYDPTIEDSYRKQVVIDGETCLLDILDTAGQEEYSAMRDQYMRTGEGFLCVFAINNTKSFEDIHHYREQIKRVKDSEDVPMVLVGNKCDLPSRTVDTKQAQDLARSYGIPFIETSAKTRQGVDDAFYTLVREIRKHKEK
T1 sequence (P01116 1-169 isoform P01116-2 G12R): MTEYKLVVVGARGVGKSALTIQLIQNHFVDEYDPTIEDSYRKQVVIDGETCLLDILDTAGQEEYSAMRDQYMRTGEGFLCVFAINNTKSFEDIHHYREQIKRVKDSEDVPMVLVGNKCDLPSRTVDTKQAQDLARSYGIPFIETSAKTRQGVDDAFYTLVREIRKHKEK

Consider `CC1c2cc(C(=O)N(C)C)nn2CCN1c1nc(OCC23CCCN2CC(F)C3)nc2c(F)c(-c3ccc(F)c4sc(N)c(C#N)c34)c(C(F)(F)F)cc12` (stereo not drawn) [Compound 701], for which the IC50 in assay [1] is 1 to 10 µM; in the assay with GP2d cells (KRAS G12D) it was < 0.1 µM; in assay [2], > 10 µM; in the assay on SW620 cells (KRAS G12V) (SW620 (KRAS G12V) cells) it was < 0.1 µM; in assay [3] it was 1 to 10 µM; in assay [4], 1 to 10 µM.

As for `CCN(c1nc(OCC23CCCN2CC(F)C3)nc2c(F)c(-c3ccc(F)c4sc(N)c(C#N)c34)c(C(F)(F)F)cc12)C1CCN(C(=O)c2ccncc2)C1` (stereo not drawn) [Compound 709], the IC50 (in assay [1]; with GP2d cells (KRAS G12D) (GP2d); in assay [2]; in the assay on SW620 cells (KRAS G12V) (setting [5]); in assay [3]; in assay [4]) was < 0.1 µM each time.

With `CCN(c1nc(OC[C@@]23CCCN2C[C@H](F)C3)nc2c(F)c(-c3ccc(F)c4sc(N)c(C#N)c34)c(C(F)(F)F)cc12)[C@H]1CCN(C(=O)OC2CCN(C(C)=O)C2)C1` (stereo partly drawn) [Compound 711], the IC50 (in assay [1]; in the assay with GP2d cells (KRAS G12D) (GP2d); in assay [2]; in the assay with SW620 cells (KRAS G12V) (setting [5]); in assay [3]; in assay [4]) was < 0.1 µM each time.

In the case of `CCN(c1nc(OCC23CCCN2CC(F)C3)nc2c(F)c(-c3ccc(F)c4sc(N)c(C#N)c34)c(C(F)(F)F)cc12)C1CCN(C(=O)c2ncccn2)C1` (stereo not drawn) [Compound 712], the IC50 (in assay [1]; in the assay on GP2d cells (KRAS G12D) (GP2d); in assay [2]; in the assay with SW620 cells (KRAS G12V) (setting [5]); in assay [3]; in assay [4]) was < 0.1 µM each time.

With `CCN(c1nc(OCC23CCCN2CC(F)C3)nc2c(F)c(-c3ccc(F)c4sc(N)c(C#N)c34)c(C(F)(F)F)cc12)C1CCN(C(=O)c2cccnc2)C1` (stereo not drawn) [Compound 715], the IC50 (in assay [1]; in the assay on GP2d cells (KRAS G12D) (GP2d); in assay [2]; in the assay on SW620 cells (KRAS G12V) (setting [5]); in assay [3]; in assay [4]) was < 0.1 µM in each case.

On to `CCN(c1nc(OCC23CCCN2CC(F)C3)nc2c(F)c(-c3ccc(F)c4sc(N)c(C#N)c34)c(C(F)(F)F)cc12)C1CCN(C(=O)c2ccccn2)C1` (stereo not drawn) [Compound 737], for which the IC50 (in assay [1]; with GP2d cells (KRAS G12D) (GP2d); in assay [2]; in the assay with SW620 cells (KRAS G12V) (setting [5]); in assay [3]; in assay [4]) was < 0.1 µM throughout.

As to `CN(C)C(=O)c1nn2c(c1C1CC1)CN(c1nc(OCC34CCCN3CC(F)C4)nc3c(F)c(-c4ccc(F)c5sc(N)c(C#N)c45)c(C(F)(F)F)cc13)CC2` (stereo not drawn) [Compound 738], the IC50 in assay [1] is 0.1 to 1 µM; with GP2d cells (KRAS G12D) (GP2d), < 0.1 µM; in assay [2] it was 0.1 to 1 µM; in the assay with SW620 cells (KRAS G12V) (setting [5]), < 0.1 µM; in assay [3] it was 0.1 to 1 µM; in assay [4] it was 0.1 to 1 µM.

As to `CCN(CC)C(=O)c1nn2c(c1C)CN(c1nc(OCC34CCCN3CC(F)C4)nc3c(F)c(-c4ccc(F)c5sc(N)c(C#N)c45)c(C(F)(F)F)cc13)CC2` (stereo not drawn) [Compound 740], the IC50 in assay [1] was 0.1 to 1 µM; in the assay with GP2d cells (KRAS G12D) (GP2d) it was < 0.1 µM; in assay [2], 0.1 to 1 µM; in the assay with SW620 cells (KRAS G12V) (setting [5]), < 0.1 µM; in assay [3], 0.1 to 1 µM; in assay [4], 0.1 to 1 µM.

Consider `Cc1c(C(=O)N2CCC2)nn2c1CN(c1nc(OCC34CCCN3CC(F)C4)nc3c(F)c(-c4ccc(F)c5sc(N)c(C#N)c45)c(C(F)(F)F)cc13)CC2` (stereo not drawn) [Compound 742], for which the IC50 was 0.1 to 1 µM in assay [1]; < 0.1 µM with GP2d cells (KRAS G12D) (GP2d); 1 to 10 µM in assay [2]; < 0.1 µM in the assay with SW620 cells (KRAS G12V) (setting [5]); 0.1 to 1 µM in assay [3]; 0.1 to 1 µM in assay [4].

On to `CCN(c1nc(OCC23CCCN2CC(F)C3)nc2c(F)c(-c3ccc(F)c4sc(N)c(C#N)c34)c(C(F)(F)F)cc12)C1CCN(C(=O)c2ncon2)C1` (stereo not drawn) [Compound 754], for which the IC50 was < 0.1 µM in assay [1]; < 0.1 µM in the assay with GP2d cells (KRAS G12D) (GP2d); 0.1 to 1 µM in assay [2]; < 0.1 µM in the assay on SW620 cells (KRAS G12V) (setting [5]); < 0.1 µM in assay [3]; 0.1 to 1 µM in assay [4].

With `CCc1c(C(=O)N(C)C)nn2c1CN(c1nc(OCC34CCCN3CC(F)C4)nc3c(F)c(-c4ccc(F)c5sc(N)c(C#N)c45)c(C(F)(F)F)cc13)CC2` (stereo not drawn) [Compound 773], the IC50 was 0.1 to 1 µM in assay [1]; < 0.1 µM in the assay with GP2d cells (KRAS G12D) (GP2d); 0.1 to 1 µM in assay [2]; < 0.1 µM in the assay on SW620 cells (KRAS G12V) (setting [5]); 0.1 to 1 µM in assay [3]; 0.1 to 1 µM in assay [4].

In the case of `CCN(c1nc(OC[C@@]23CCCN2C[C@H](F)C3)nc2c(F)c(-c3ccc(F)c4sc(N)c(C#N)c34)c(C(F)(F)F)cc12)[C@H]1CCN(C(=O)OC2CC(F)C2)C1` (stereo partly drawn) [Compound 776], the 50% inhibitory concentration (IC50) in assay [1] was < 0.1 µM; with GP2d cells (KRAS G12D) (GP2d), < 0.1 µM; in assay [2], 0.1 to 1 µM; in the assay on SW620 cells (KRAS G12V) (setting [5]) it was < 0.1 µM; in assay [3], < 0.1 µM; in assay [4] it was 0.1 to 1 µM.

For the compound `CCN(c1nc(OC[C@@]23CCCN2C[C@H](F)C3)nc2c(F)c(-c3ccc(F)c4sc(N)c(C#N)c34)c(C(F)(F)F)cc12)[C@H]1CCN(C(=O)C2CC(OC)C2)C1` (stereo partly drawn) [Compound 777], the IC50 in assay [1] is < 0.1 µM; with GP2d cells (KRAS G12D) (GP2d) it was < 0.1 µM; in assay [2] it was 0.1 to 1 µM; in the assay on SW620 cells (KRAS G12V) (setting [5]), < 0.1 µM; in assay [3], < 0.1 µM; in assay [4], 0.1 to 1 µM.

For the compound `CCN(c1nc(OC[C@@]23CCCN2C[C@H](F)C3)nc2c(F)c(-c3ccc(F)c4sc(N)c(C#N)c34)c(C(F)(F)F)cc12)[C@H]1CCN(C(=O)OC2CC(F)C2)C1` (stereo partly drawn) [Compound 787], the IC50 (in assay [1]; in the assay on GP2d cells (KRAS G12D); in assay [2]; with SW620 cells (KRAS G12V) (SW620 (KRAS G12V) cells); in assay [3]; in assay [4]) was < 0.1 µM in each case.

`CCN(c1nc(OC[C@@]23CCCN2C[C@H](F)C3)nc2c(F)c(-c3ccc(F)c4sc(N)c(C#N)c34)c(C(F)(F)F)cc12)[C@H]1CCN(C(=O)OC2CC(OC)C2)C1` (stereo partly drawn) [Compound 791]: the IC50 (in assay [1]; with GP2d cells (KRAS G12D) (GP2d); in assay [2]; in the assay on SW620 cells (KRAS G12V) (setting [5]); in assay [3]; in assay [4]) was < 0.1 µM in each case.

In the case of `CCN(c1nc(OCC23CCCN2CC(F)C3)nc2c(F)c(-c3ccc(F)c4sc(N)c(C#N)c34)c(C(F)(F)F)cc12)C1CCN(C(=O)c2oncc2C)C1` (stereo not drawn) [Compound 804], the IC50 (in assay [1]; with GP2d cells (KRAS G12D) (GP2d); in assay [2]; in the assay with SW620 cells (KRAS G12V) (setting [5]); in assay [3]; in assay [4]) was < 0.1 µM each time.
